Assay results published in patent US20120064008A1, “COMPOSITIONS FOR THE TREATMENT OF METASTATIC CANCER AND METHODS OF USE THEREOF” (priority 2009, published 2012).
Read-outs that look alike come from different tables or passages of the source.

Assays:
PC-3MLN4 cells = test: Normalized mitotic index (histone H3 phospho-Serine-28), PC-3MLN4; assay type: cell-based; details: Homo sapiens, at 1 μM; normalized against vehicle-treated cells; read-out: Normalized mitotic index PC-3MLN4
Excerpt: (§1) The mitotic index for each agent was normalized against those obtained from vehicle-treated cells, and compared with the activity of paclitaxel, a known inducer of mitotic arrest.

PC-3M cells = test: Normalized mitotic index (histone H3 phospho-Serine-28), PC-3M; assay type: cell-based; details: Homo sapiens, at 1 μM, normalized against vehicle-treated cells, read-out: Normalized mitotic index PC-3M
Excerpt: as §1

AT6.1 cells = test: Normalized mitotic index (histone H3 phospho-Serine-28), AT6.1; assay type: cell-based; details: Rattus norvegicus, at 1 μM; normalized against vehicle-treated cells; read-out: Normalized mitotic index AT6.1
Excerpt: as §1

[1] = tested on: AT6.1 Dunning rat prostate carcinoma; test: Survival in intravenous AT6.1 Dunning rat prostate carcinoma lung metastasis model; assay type: in vivo, nu/nu mice; details: for percent increase in life span (ILS %): 100 mg/kg i.p. three times a week, over vehicle-treated mice; for average survival time: FIG. 5 (carrier only 20.4 days)
Experimental: Many anti-tumor drugs are tested only for their ability to prevent primary tumor growth or to prevent the dissemination of metastatic cells. To accomplish this, the drug is usually administered shortly after the primary tumor is established. […] The benzimidazoles described herein were evaluated in an experimental metastases model in the lungs of nude mice following tail-vein injection of Dunning rat AT6.1 prostate carcinoma. […] In order to achieve greater bioavailability, we first solubilized benzimidazoles in DNTC formulation and then diluted with saline prior to injection.
Inbred male nu/nu mice age 6-8 weeks were obtained from Massachusetts General Hospital (Boston, Mass.). The mice were virus antibody free, age and weight matched for experimental use and fed with a balanced rodent diet ad libitum. AT6.1 Dunning rat prostate cells were maintained as described above. 1×10^4 log-phase cells were injected via tail vein in 0.1 mL Hanks solution. Vehicle or drug treatment was started on day 5 post inoculation and given three times a week (Monday, Wednesday and Friday) via intraperitoneal injection in 0.5 mL volume. Benzimidazole drugs were prepared in the combination carrier [DMSO (12.5%), NMP (37.5%), TWEEN®-80 (25%) and CrEL (25%)] and diluted in saline. Vehicle control was prepared by diluting the combination carrier with saline.
During the course of treatment, the mice were monitored for toxicity by measuring body weight. […] Animals were euthanized with CO2 and tissues were collected for further analysis. The animals and experiments used in these studies were approved by the institutional animal care committee according to Children's Hospital Boston ARCH guidelines.
To distinguish differences in survival between these groups, the percent increase in life span (ILS %), defined as the percent increase in the mean time to death of drug-treated animals over the corresponding time to death for vehicle-treated mice, was calculated.

tubulin = test: In vitro tubulin polymerization assay; assay type: biochemical
Excerpt: Using an in vitro tubulin polymerization assay, it was confirmed that benzimidazoles disrupt microtubule polymerization.

[2] = tested on: PC3M human prostate cancer cells; test: Cyquant cell viability assay, PC3M; assay type: cell-based; details: Homo sapiens, PC-3M
Experimental: (§2) PC3M and PC3MLN4 cells were treated with vehicle, fenbendazole in DMSO, and fenbendazole in DMSO/NMP/TWEEN®-80/CrEL in varying doses for 72 hours. Cell viability assays using Cyquant reagent (Invitrogen, C7026) were performed as described in the literature. […] cells were seeded in 96 well plates overnight, before treated with either vehicle or benzimidazole solubilized in DMSO alone or in DMSO (12.5%)/NMP ([…])/TWEEN®-80 (25%)/Cr-EL (25%) for 72 hours. Cells were harvested by removing the media, washing once with phosphate buffered saline (PBS) and freezing at −80° C. for overnight. After thawing to room temperature, Cyquant reagent were prepared and added to the wells and the fluorescence intensity were measured with a spectrometer at 485 nm. Percent control was calculated by dividing the reading from drug-treated cells with the reading from vehicle-treated cells.
(§3) ED50 values were calculated from dose-effect analysis performed with Compusyn using data from the Cyquant cell viability assays.
(§4) ED50 values were calculated from dose-effect analysis performed with Compusyn using data from the Cyquant cell viability assays. All benzimidazoles drugs were solubilized in the combination carrier.

[3] = tested on: PC3MLN4 human prostate cancer cells; test: Cyquant cell viability assay, PC3MLN4
Experimental: as §2, §3, §4

PC3MLN4 cells = test: Annexin V/7-AAD apoptosis by flow cytometry, PC3MLN4
Experimental: (§5) Annexin V/7-amino-actinomycin D labeling was done according to the manufacturer's instructions (BD Pharmingen, 559763) and samples were analyzed by flow cytometry. Briefly, the cells were treated for 72 hours with either vehicle or 1 μM benzimidazole drugs, solubilized in the combination carrier. Cells were trypsinized and washed with PBS before resuspending in assay binding buffer. Annexin V and 7-amino-actinomycin labeling was performed at room temperature for 15 minutes before analysis by flow cytometry (BD FACScan). Cells positively stained for annexin V in the lower right quadrant and upper right quadrant indicate early and late apoptosis, respectively.
All benzimidazole drugs were solubilized in the combination carrier. After 72 hours, the cells were analyzed by annexin V/7-AAD staining. Cells positively stained for annexin V in the lower right quadrant and upper right quadrant indicate early and late apoptosis, respectively.

PC3M cells = test: Annexin V/7-AAD apoptosis by flow cytometry, PC3M; assay type: cell-based, human; details: 1 μM, 72 hours, combination carrier
Experimental: All benzimidazole drugs were solubilized in the combination carrier. After 72 hours, the cells were analyzed by annexin V/7-AAD staining.
as §5

[4] = tested on: AT6.1 Dunning rat prostate carcinoma; test: Tumor burden by blood Gaussia luciferase assay in AT6.1 model; assay type: in vivo, nu/nu mice; details: 100 mg/kg
Excerpt: Similar to the survival model, treatment was not begun until day 5 when micrometastases were confirmed growing in the lung. For this approach, the AT6.1 cells were engineered to express secreted Gaussia luciferase enzyme. Using measurement of luciferase activity from the peripheral blood as an indicator of overall tumor burden, a significant reduction of tumor burden in the lungs of benzimidazole-treated animals when compared to vehicle-treated mice was observed. After 22 days, the mice were sacrificed and the lungs examined for viable tumor colonies.
Blood Gaussia luciferase assay was performed as described in the literature. Briefly, 10-20 μL peripheral blood was collected from the animals once a week via the retro-orbital vein. Secreted GAR luciferase activity was measured using a luminometer by adding 100 μL of 100 μM coelentrazine (Prolume, Nanolight, #303) to 5 μL blood and 2 μL of 20 mM EDTA. Relative luciferase reading from the blood collected represents the tumor burden in each animal. The reading was performed with blood collected at day 19 post inoculation when all mice were still alive.

[5] = Combination with paclitaxel, Cyquant cell growth inhibition, CompuSyn median-dose effect analysis; assay type: cell-based; details: Fa 0.50; alone or in combination; read-out: Dose MBZ
Experimental: Cell growth inhibition assays were performed using Cyquant reagent as described above. Drug interactions were quantitated by median-dose effect analysis and combination index values as well as dose reduction index were derived using CompuSyn software (ComboSyn, Inc.), as described previously in the literature. CI values of <1, =1, and >1 indicate synergism, additivity and antagonism between the drugs, respectively.
All benzimidazole drugs were prepared using the combination carrier and diluted with culture medium prior to treatment.

[6] = tested on: PC3 human prostate cancer cells; test: Cyquant cell viability assay, PC3; assay type: cell-based; details: 72 hours, read-out: ED50 PC3
Experimental: (§6) The cytotoxic effects of paclitaxel, fenbendazole, and albendazole were compared in paclitaxel-resistant PC3-TR and DU145-TR prostate cancer cells with their paclitaxel-sensitive counterparts, PC3 and DU145 cells. Cells were treated for 72 hours with vehicle, paclitaxel, fenbendazole or albendazole in various doses. Cell viability was measured using Cyquant assay, and percent control was calculated by dividing the fluorescent reading from drug-treated cells with those from vehicle-treated cells, indicating percentage of cell survival.

[7] = tested on: paclitaxel-resistant PC3-TR prostate cancer cells; test: Cyquant cell viability assay, PC3-TR; assay type: cell-based, human; details: Homo sapiens; 72 hours; paclitaxel-resistant; read-out: ED50 PC3-TR
Experimental: as §6

[8] = tested on: DU145 human prostate cancer cells; test: Cyquant cell viability assay, DU145; assay type: cell-based; details: DU-145, 72 hours, read-out: ED50 DU145
Experimental: as §6

[9] = tested on: paclitaxel-resistant DU145-TR prostate cancer cells; test: Cyquant cell viability assay, DU145-TR; assay type: cell-based, human; details: Homo sapiens; 72 hours; paclitaxel-resistant; read-out: ED50 DU145-TR
Experimental: as §6

[10] = tested on: MES-SA human uterine sarcoma cells; test: Cell viability, MES-SA; assay type: cell-based; details: read-out: ED50 MES-SA
Excerpt: (§7) Benzimidazoles retain their anti-tumor activity in these paclitaxel-resistant cells, with higher potency when compared to the parental cells (see Table 4). Cells resistant to microtubule-stabilizing drugs such as the taxanes are more susceptible to microtubule-disrupting agents. To confirm this, human uterine sarcoma MES-SA/Dx5 cells, which are cross-resistant to various chemotherapeutic agents, including the microtubule-disrupting agents vincristine and colchicine, were used.

[11] = tested on: multidrug resistant MES-SA/Dx5 human uterine sarcoma cells; test: Cell viability, MES-SA/Dx5; assay type: cell-based; details: read-out: ED50 MES-SA/Dx5
Excerpt: as §7

PC3 cells = test: % apoptotic cells, PC3; assay type: cell-based, human; details: 1 μM
PC3-TR cells = test: % apoptotic cells, PC3-TR; assay type: cell-based, human; details: 1 μM
DU145 cells = test: % apoptotic cells, DU145; assay type: cell-based, human; details: 1 μM
DU145-TR cells = test: % apoptotic cells, DU145-TR; assay type: cell-based, human; details: 1 μM
[12] = combination carrier, Table 2, read-out: ED50 PC3M
[13] = 50 mg/kg i.p. three times a week from day 5

CCCCNC(=O)n1c(NC(=O)OC)nc2ccccc21 [Benomyl, benomyl]
fold induction at 1 µM (PC-3MLN4 cells): 0.99 | fold induction at 1 µM (PC-3M cells): 0.91 | fold induction at 1 µM (AT6.1 cells): 1.08 | percent increase in life span (ILS %) [1]: 7.5% | tubulin disrupting effect (tubulin): strongest tubulin disrupting effect

COC(=O)Nc1nc2ccccc2[nH]1 [Carbendazim, carbendazim]
fold induction at 1 µM (PC-3MLN4 cells): 1 | fold induction at 1 µM (PC-3M cells): 0.91 | fold induction at 1 µM (AT6.1 cells): 1.08

COC(=O)Nc1nc2cc(C(=O)c3ccc(F)cc3)ccc2[nH]1 [Flubendazole, flubendazole]
EC50 [2, 12]: 1430 nM | cytotoxicity in highly metastatic cells relative to PC-3M [3]: greater cytotoxicity | fold induction at 1 µM (PC-3M cells): > 1 | fold induction at 1 µM (AT6.1 cells): > 1 | cytotoxic activity via apoptosis in highly metastatic prostate cancer cells (PC3MLN4 cells): induction of apoptosis

COC(=O)Nc1nc2ccc(C(=O)c3ccccc3)cc2[nH]1 [Mebendazole, mebendazole]
EC50 [2, 12]: 1210 nM | apoptotic cells in PC3MLN4 (PC3MLN4 cells; 1 μM, 72 hours, combination carrier): 17.6% | apoptotic cells in PC3M (PC3M cells): 16.8% | average survival time [1, 13]: 29 days | average survival time ([1]; 100 mg/kg i.p. three times a week from day 5): 34.6 days | percent increase in life span (ILS %) [1]: 48.9% | survival ([1]; 100 mg/kg, FIG. 6 (control 24.25 days)): 36.13 days | reduction in tumor burden ([4]; blood collected at day 19, FIG. 8): most pronounced | tumor burden compared to the control ([4]; until day 22, FIG. 9): significant reduction in tumor burden | EC50 [5]: 17500 nM | EC50 [6]: 2850 nM | EC50 [7]: 750 nM | EC50 [8]: 5900 nM | EC50 [9]: 2970 nM | EC50 [10]: 1270 nM | EC50 [11]: 790 nM | % Apoptotic cells (72 hours) PC3 (PC3 cells): 11.9% | % Apoptotic cells (72 hours) PC3-TR (PC3-TR cells): 21.5% | % Apoptotic cells (72 hours) DU145 (DU145 cells): 16.4% | % Apoptotic cells (72 hours) DU145-TR (DU145-TR cells): 36.7%

CCCOc1ccc2nc(NC(=O)OC)[nH]c2c1 [Oxibendazole, oxibendazole]
EC50 ([2]; solubilized in DMSO alone, 72 hours, read-out: ED50 PC3M DMSO): 8820 nM | cytotoxicity in highly metastatic cells relative to PC-3M [3]: greater cytotoxicity | EC50 ([3]; Homo sapiens, 72 h, read-out: ED50 PC3MLN4 DMSO): 4120 nM | fold induction at 1 µM (PC-3MLN4 cells): 1.8 to 2 | fold induction at 1 µM (PC-3M cells): > 1 | fold induction at 1 µM (AT6.1 cells): > 1 | cytotoxic activity via apoptosis in highly metastatic prostate cancer cells (PC3MLN4 cells): induction of apoptosis | average survival time [1, 13]: 27.4 days

c1ccc2[nH]c(-c3cscn3)nc2c1 [Thiabendazole, thiabendazole]
fold induction at 1 µM (PC-3MLN4 cells): 0.99 | fold induction at 1 µM (PC-3M cells): 0.98 | fold induction at 1 µM (AT6.1 cells): 0.96

COC(=O)NC(=S)Nc1ccccc1NC(=S)NC(=O)OC [Thiophanate methyl, thiophanate-methyl]
fold induction at 1 µM (PC-3MLN4 cells): 0.95 | fold induction at 1 µM (PC-3M cells): 0.95 | fold induction at 1 µM (AT6.1 cells): 0.96
